We go through 3 molecules from patent US20020009799A1, “Isolation and purification of nucleic acids” (priority 1999, published 2002).

For series [1] the following is noted: bracketed value; cited from earlier work.
The next series concerns E. coli cells. Kind of series: Lysis of suspended bacterial cells by lysis buffers with 0.1 to 1% SDS. To be noted: lysis buffer with 1% OT-100, 0.2M NaOH. It is filed as cell-based. As for the experimental part:
0.25 grams of pelleted E. coli cells (the cells contained an 8.165 kB plasmid called VR1412) were suspended in the suspension buffer from a Concert Plasmid DNA Purification Kit (Life Technologies, Inc., Bethesda, Md.). In place of the lysis buffer provided in the Concert Plasmid DNA Purification Kit (i.e., 1% SDS in 200 mM NaOH), a series of ten different lysis buffers were evaluated. Each lysis buffer included 1% OT-100 (a hydrophobic surfactant), 0.2M NaOH and from 0.1 to 1% SDS. The lysis buffers were used to lyse the suspended bacterial cells, and the lysed suspension was then neutralized with the neutralization buffer provided in the Concert Plasmid DNA Purification Kit. The resulting plasmid DNA preparation was precipitated by the addition of isopropanol (IPA) followed by centrifugation.
The best result was obtained with 1% OT-100 and 0.4% SDS, that combined a relatively low endotoxin (LAL) level and a high plasmid concentration.

For series [2] the following is noted: in water; cited from earlier work.

Consider Triton ® X-100, for which the “Dynamic Surface Tension [6 bubbles/sec]” value in series [1] was “— (42.2) dynes/cm”.
Consider `CCCCCCCCCCCCOS(=O)(=O)[O-].[Na+]` [SDS, Sodium dodecyl sulfate], for which the “minimum concentration of SDS required to achieve most effective bacterial lysis” value with E. coli cells amounted to 0.4%.
On to `CCCCCCCCCCCCCOC(=O)CC(C(=O)OCCCCCCCCCCCCC)S(=O)(=O)O.[Na]` (stereo not drawn) [TR-70, sodium bistridecyl sulfosuccinate], for which the “Solubility” value in series [2] is on record as 0.15%.
